Measurements reported in patent publication US12715858B2, “Pyridazinone compounds” (INVENTISBIO CO., LTD., priority 2020, dated 2026).
Read-outs that look alike come from different tables or passages of the source.

Experiments:
Type in all cases: physicochemical
[1] = Solubility in water and bio-relevant media at 37° C. (HPLC of filtrate, pH of filtrate, XRPD of filter cake); conditions: for solubility at 0.5 h / solubility at 2 h / solubility at 24 h: 37 °C, thermodynamic from solid; for solubility at 0.5 h / Solubility (mg/mL) 2 h / Solubility (mg/mL) 24 h / Solubility (mg/mL) 0.5 h / solubility at 2 h / solubility at 24 h: 37° C.; for solubility at 0.5 h: read-out: Solubility (mg/mL) 0.5 h; for XRPD: filter cake obtained at 2 or 24 hours; for PH 0.5 h / PH 2 h / PH 24 h: pH of the filtrate; for solubility at 2 h: read-out: Solubility (mg/mL) 2 h; for solubility at 24 h: read-out: Solubility (mg/mL) 24 h
Description: Solubility of Form I of free acid, Form 1 and Form 2 of potassium salt, and Form A of sodium salt were tested in water and in bio-relevant media of Simulated Intestinal Fluid (SIF), Simulated Gastric Fluid (SGF), Fasted State Simulated Intestinal Fluid (FaSSIF), and Fed State Simulated Intestinal Fluid (FeSSIF) at 37° C. up to 24 hours. About 12 mg of the sample was weighed into sample vials and then 1.5 mL of each media was added to make suspensions respectively. All suspensions were shaken at 37° C. with 200 rpm.

[2] = Solid state stability at 60° C. and 40° C./75% RH for 7 days (HPLC purity, XRPD); conditions: for chemical and physical stability: 40° C./75% RH and 60° C. for 7 days; for Purity at Day 7 (Area %) 40° C./75% RH: 7 days at 40° C./75% RH; for Purity at Day 7 (Area %) 40° C./75% RH / Purity at Day 7 (Area %) 60° C.: HPLC; for Purity at Day 7 (Area %) 60° C.: 7 days at 60° C.; for XRPD 40° C./75% RH: crystal form after 7 days at 40° C./75% RH; for XRPD 60° C.: crystal form after 7 days at 60° C.; for Initial Purity (Area %): day 0, HPLC
Description: HPLC analysis was performed with an Agilent HPLC 1260 series instrument.
Appropriate amount of free acid Form I, potassium salts Form 1 and Form 2, and sodium salt Form A were placed at 60° C. and 40° C./75% RH for 7 days. At 0 and 7 days, the samples were dissolved in diluent to prepare a solution of 0.5 mg/mL for HPLC purity analysis. Solid samples were analyzed by XRPD to check the crystal form.

[3] = Dynamic Vapor Sorption (DVS); conditions: for hygroscopicity: DVS; for water uptake / weight gain by DVS: at 80% RH (Form I: 0 to 80% RH), 25° C.
Description: Dynamic Vapor Sorption (DVS): Moisture sorption/desorption data was collected on a IGASorp DVS. The sample was placed into a tarred sample chamber and weighed automatically. The sample was dried at 50° C. until the % RH was less than 0.3% and cooled to 25° C. Set the instrument parameters as below.

[4] = Interconversion study of potassium salt Form 1 and Form 2 (slurry of equal amounts); conditions: for XRPD result: 20 V, stirred overnight
Description: Interconversion study were performed in MeOH/EA (1/9, RT or 50° C.) and acetone/water (20/1, RT or 50° C.). Equal amounts of Form 1 and Form 2 were slurried in specified solvents at different temperatures for certain time.

[5] = FaSSIF (Fasted State Simulated Intestinal Fluid), fassif, FaSSIF, LOQ is 0.5 μg/mL
[6] = FeSSIF (Fed State Simulated Intestinal Fluid), fessif, FeSSIF
[7] = water, water, Water, LOQ is 0.5 μg/mL

Cc1nn(-c2cc(Cl)c(Oc3cc(C(C)C)c(=O)[nH]n3)c(Cl)c2)c(=O)[n-]c1=O.[K+] [Potassium salt Form 2]
solubility at 0.5 h [1, 5]: 0.0011 mg/mL
Solubility (mg/mL) 2 h ([1]; FaSSIF, LOQ is 0.5 μg/mL): 0.015 mg/mL
Solubility (mg/mL) 24 h ([1]; FaSSIF): 0.0070 mg/mL
Solubility (mg/mL) 0.5 h ([1]; FeSSIF): 0.0041 mg/mL
Solubility (mg/mL) 2 h ([1]; FeSSIF): 0.013 mg/mL
Solubility (mg/mL) 24 h ([1]; FeSSIF): 0.022 mg/mL
Solubility (mg/mL) 0.5 h ([1]; SGF, LOQ is 0.5 μg/mL): <LOQ
Solubility (mg/mL) 2 h ([1]; SGF, LOQ is 0.5 μg/mL): <LOQ
Solubility (mg/mL) 24 h ([1]; SGF, LOQ is 0.5 μg/mL): <LOQ
Solubility (mg/mL) 0.5 h ([1]; SIF, LOQ is 0.5 μg/mL): <LOQ
Solubility (mg/mL) 2 h ([1]; SIF, LOQ is 0.5 μg/mL): <LOQ
Solubility (mg/mL) 24 h ([1]; SIF, LOQ is 0.5 μg/mL): <LOQ
Solubility (mg/mL) 0.5 h ([1]; Water, LOQ is 0.5 μg/mL): 4.63 mg/mL
Solubility (mg/mL) 2 h ([1]; Water, LOQ is 0.5 μg/mL): 6.69 mg/mL
Solubility (mg/mL) 24 h ([1]; Water, LOQ is 0.5 μg/mL): 6.71 mg/mL
XRPD ([1]; FaSSIF): Free acid
XRPD ([1]; FeSSIF): Free acid
XRPD ([1]; SGF): Free acid
XRPD ([1]; SIF): Free acid
XRPD ([1]; Water): Free acid
PH 0.5 h ([1]; FaSSIF): 7.04
PH 2 h ([1]; FaSSIF): 7.49
PH 24 h ([1]; FaSSIF): 7.90
PH 0.5 h ([1]; FeSSIF): 5.09
PH 2 h ([1]; FeSSIF): 5.24
PH 24 h ([1]; FeSSIF): 5.17
PH 0.5 h ([1]; SGF): 1.35
PH 2 h ([1]; SGF): 1.25
PH 24 h ([1]; SGF): 1.25
PH 0.5 h ([1]; SIF): 7.43
PH 2 h ([1]; SIF): 7.51
PH 24 h ([1]; SIF): 7.46
PH 0.5 h ([1]; Water): 10.49
PH 2 h ([1]; Water): 10.62
PH 24 h ([1]; Water): 10.42
chemical and physical stability [2]: chemically and physically stable
Purity at Day 7 (Area %) 40° C./75% RH [2]: 98.97 Area %
Purity at Day 7 (Area %) 60° C. [2]: 99.07 Area %
XRPD 40° C./75% RH [2]: Unchanged
XRPD 60° C. [2]: Unchanged
Initial Purity (Area %) [2]: 99.04 Area %
DVS Water % at 80% RH ([3]; 80% RH, forms of potassium salt of Compound 1): 1.6%
hygroscopicity [3]: slight hygroscopic
crystal form of solid after the DVS study ([3]; XRPD after DVS): remained unchanged
water uptake / weight gain by DVS [3]: 1.6%
relative stability of Form 1 and Form 2 ([4]; slurry in MeOH/EA and acetone/water, RT or 50° C.): more stable in aqueous solution

Cc1nn(-c2cc(Cl)c(Oc3cc(C(C)C)c(=O)[nH]n3)c(Cl)c2)c(=O)[n-]c1=O.[Na+] [Sodium salt Form A]
solubility at 0.5 h [1, 5]: 0.0013 mg/mL
solubility at 2 h [1, 5]: 0.015 mg/mL
solubility at 24 h ([1]; FaSSIF (Fasted State Simulated Intestinal Fluid), fassif, FaSSIF): 0.013 mg/mL
solubility at 0.5 h [1, 6]: 0.0011 mg/mL
solubility at 2 h [1, 6]: 0.0029 mg/mL
solubility at 24 h [1, 6]: 0.012 mg/mL
Solubility (mg/mL) 0.5 h ([1]; SGF, LOQ is 0.5 μg/mL): <LOQ
Solubility (mg/mL) 2 h ([1]; SGF, LOQ is 0.5 μg/mL): <LOQ
Solubility (mg/mL) 24 h ([1]; SGF, LOQ is 0.5 μg/mL): <LOQ
Solubility (mg/mL) 0.5 h ([1]; SIF, LOQ is 0.5 μg/mL): <LOQ
Solubility (mg/mL) 2 h ([1]; SIF, LOQ is 0.5 μg/mL): <LOQ
Solubility (mg/mL) 24 h ([1]; SIF, LOQ is 0.5 μg/mL): <LOQ
XRPD ([1]; FaSSIF): Free acid
XRPD ([1]; FeSSIF): Free acid
XRPD ([1]; SGF): Free acid
XRPD ([1]; SIF): Free acid
XRPD ([1]; Water): Free acid +
PH 0.5 h ([1]; FaSSIF): 7.07
PH 2 h ([1]; FaSSIF): 7.33
PH 24 h ([1]; FaSSIF): 8.27
PH 0.5 h ([1]; FeSSIF): 5.09
PH 2 h ([1]; FeSSIF): 5.18
PH 24 h ([1]; FeSSIF): 5.26
PH 0.5 h ([1]; SGF): 1.24
PH 2 h ([1]; SGF): 1.24
PH 24 h ([1]; SGF): 1.24
PH 0.5 h ([1]; SIF): 7.23
PH 2 h ([1]; SIF): 7.60
PH 24 h ([1]; SIF): 7.65
PH 0.5 h ([1]; Water): 10.76
PH 2 h ([1]; Water): 10.81
PH 24 h ([1]; Water): 10.63
solubility at 0.5 h [1, 7]: 2.8 mg/mL
solubility at 2 h [1, 7]: 3.51 mg/mL
solubility at 24 h [1, 7]: 4.57 mg/mL
chemical and physical stability [2]: chemically and physically stable
Purity at Day 7 (Area %) 40° C./75% RH [2]: 98.02 Area %
Purity at Day 7 (Area %) 60° C. [2]: 98.01 Area %
XRPD 40° C./75% RH [2]: Unchanged
XRPD 60° C. [2]: Unchanged
Initial Purity (Area %) [2]: 97.98 Area %
hygroscopicity [3]: slightly hygroscopic
water uptake / weight gain by DVS [3]: about 1.6%

Cc1nn(-c2cc(Cl)c(Oc3cc(C(C)C)c(=O)[nH]n3)c(Cl)c2)c(=O)[n-]c1=O.[K+] [Potassium Salts Form 1 and 2]
XRPD result ([4]; 50° C., Acetone/Water (19/1)): Form 2
XRPD result ([4]; 50° C., MeOH/EtOAc (1/9)): Form 1
XRPD result ([4]; RT, Acetone/Water (19/1)): Form 2
XRPD result ([4]; RT, MeOH/EtOAc (1/9)): Form 1
